Assay results published in patent publication US9862730B2, “Imidazothiadiazole derivatives as protease activated receptor 4 (PAR4) inhibitors for treating platelet aggregation” (BRISTOL-MYERS SQUIBB COMPANY, priority 2012, dated 2018).

molecular target: PAR4 (Homo sapiens (Human), UniProt Q96RI0); assay: FLIPR assay in PAR4-expressing HEK293 cells (PAR4 antagonist activity, calcium mobilization); type: cell-based; details: FLIPR assay as described in Example A
Excerpt: The FLIPR assay is an exemplary in vitro assay for measuring the activity of the PAR4 antagonists of the present invention. In this assay, intracellular calcium mobilization is induced in PAR4 expressing cells by a PAR4 agonist and calcium mobilization is monitored. See, e.g., Example A.
HEK293 cells stably expressing PAR4 were generated by a standard method of transfection of human […] cDNA expression vector or by RAGE technology from Athersys Inc. (Cleveland, Ohio) and selected based on PAR4 protein expression of mRNA expression. […] These cells express endogenous PAR1 and can elicit calcium signal upon stimulation with PAR1 agonist peptide.
Counter screens for agonist activity and PAR1 antagonist activity were also performed. Briefly, HEK293 EBNA PAR4 clone 20664.1J cells were plated 24 hrs. prior to experiment in 384 well, Poly-D-Lysine coated, black, clear bottom plates (Greiner Bio-One, Monroe, N.C.). Cells were plated at 20,000 cells/well in 20 μl growth medium and incubated at 37° C. with 5% CO2 overnight. At time of assay, media was replaced with 40 μl 1× Hank's Buffered Saline Solution (HBSS) (with 10 mM HEPES) and 20 μl test compound also diluted in 1×HBSS buffer was added at various concentrations and 0.67% DMSO final concentration on the FDSS for agonist measurement. The cells were then incubated for 30 minutes at room temperature followed by addition of 20 μl of agonist peptide for antagonist measurement on the FDSS.
As indicated above, the FLIPR assay, an in vitro assay, measures the PAR4 antagonist activity of compounds tested as described in Example A.

Sequence of PAR4 (Q96RI0 18-385): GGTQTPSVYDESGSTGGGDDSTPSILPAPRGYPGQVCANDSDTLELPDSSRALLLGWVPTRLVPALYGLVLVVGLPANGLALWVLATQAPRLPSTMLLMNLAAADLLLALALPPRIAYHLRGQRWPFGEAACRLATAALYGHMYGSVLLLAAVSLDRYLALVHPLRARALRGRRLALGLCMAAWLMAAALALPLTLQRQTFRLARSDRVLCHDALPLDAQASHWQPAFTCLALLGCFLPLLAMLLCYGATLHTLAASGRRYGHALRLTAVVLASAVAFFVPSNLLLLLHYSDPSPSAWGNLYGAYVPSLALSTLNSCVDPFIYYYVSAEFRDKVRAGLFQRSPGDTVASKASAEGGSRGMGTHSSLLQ

Row | IC50 [nM] | Compound
1 | 13.6 | COc1cccc2oc(-c3cn4nc(SC)sc4n3)nc12 [Example 149]
2 | 701 | CSc1nn2cc(-c3nc4ccc(N)cc4o3)nc2s1 [Example 176]
3 | 3.78 | COc1cc(OC)c2nc(-c3cn4nc(SC)sc4n3)oc2c1 [Example 177]
4 | 225 | Cc1cc2nc(-c3cn4nc(C(C)(F)F)sc4n3)oc2cc1C [Example 179]
5 | 412 | Fc1ccc2nc(-c3cn4nc(Br)sc4n3)sc2c1 [Example 183, 2-(2-bromoimidazo[2,1-b][1,3,4]thiadiazol-6-yl)-6-fluorobenzo[d]thiazole]
6 | 5.5 | COc1nn2cc(-c3nc4ccc(F)cc4s3)nc2s1 [Example 184, 6-Fluoro-2-(2-methoxyimidazo[2,1-b][1,3,4]thiadiazol-6-yl)benzo[d]thiazole]
7 | 2200 | COc1cc(OC)c2nc(-c3cn4nc(SC)sc4n3)sc2c1 [Example 189]
8 | 1040 | Fc1ccc2sc(-c3cn4nc(Br)sc4n3)nc2c1 [Example 193]
9 | 9.64 | COc1nn2cc(-c3nc4cc(F)ccc4s3)nc2s1 [Example 194]
10 | 791 | COc1nn2cc(-c3nc4c(Cl)cccc4s3)nc2s1 [Example 196]
11 | 1050 | COc1nn2cc(-c3nc4ccc(C)cc4s3)nc2s1 [Example 197]
12 | 8.63 | COc1cc2oc(-c3cn4nc(Br)sc4n3)cc2cc1Cl [Example 200, 2-Bromo-6-(5-chloro-6-methoxybenzofuran-2-yl)imidazo[2,1-b][1,3,4]thiadiazole]
13 | 4.38 | COc1nn2cc(-c3cc4cc(Cl)c(OC)cc4o3)nc2s1 [Example 201, 2-Methoxy-6-(5-chloro-6-methoxybenzofuran-2-yl)imidazo[2,1-b][1,3,4]thiadiazole]
14 | 3.15 | COc1cc2oc(-c3cn4nc(SC)sc4n3)cc2cc1Cl [Example 202, 6-(5-Chloro-6-methoxybenzofuran-2-yl)-2-(methylthio)imidazo[2,1-b][1,3,4]thiadiazole]
15 | 170 | COc1cc(O)c2cc(-c3cn4nc(OC)sc4n3)oc2c1 [Example 204, 6-Methoxy-2-(2-methoxyimidazo[2,1-b][1,3,4]thiadiazol-6-yl)benzofuran-4-ol]
16 | 2.01 | CCOc1cc(OC)cc2oc(-c3cn4nc(OC)sc4n3)cc12 [Example 206]
17 | 127 | CC(F)(F)c1nn2cc(-c3cc4ccccc4o3)nc2s1 [Example 207, 6-(Benzofuran-2-yl)-2-(1,1-difluoroethyl)imidazo[2,1-b][1,3,4]thiadiazole]
18 | 457 | FC(F)C(F)(F)c1nn2cc(-c3cc4ccccc4o3)nc2s1 [Example 208, 6-(Benzofuran-2-yl)-2-(1,1,2,2-tetrafluoroethyl)imidazo[2,1-b][1,3,4]thiadiazole]

Second part, the molecule before the results:

Row | Compound | IC50 [nM]
19 | CSc1nn2cc(-c3nc4ccc(OCc5cccc(C#N)c5)cc4o3)nc2s1 [Example 150] | 621
20 | CSc1nn2cc(-c3nc4ccc(OCc5ccccc5Cl)cc4o3)nc2s1 [Example 151] | 673
21 | CSc1nn2cc(-c3nc4ccc(OCc5cc(F)cc(F)c5)cc4o3)nc2s1 [Example 152] | 340
22 | CSc1nn2cc(-c3nc4ccc(OCc5ccc(C(F)(F)F)cc5)cc4o3)nc2s1 [Example 153] | 345
23 | CSc1nn2cc(-c3nc4c(OCc5cccnc5)cccc4o3)nc2s1 [Example 154] | 571
24 | CSc1nn2cc(-c3nc4c(OCc5ccc(C(F)(F)F)cc5)cccc4o3)nc2s1 [Example 155] | 301
25 | CSc1nn2cc(-c3nc4c(OCc5cccc(C#N)c5)cccc4o3)nc2s1 [Example 156] | 1020
26 | CSc1nn2cc(-c3nc4c(OCc5ccc(Cl)cc5)cccc4o3)nc2s1 [Example 157] | 1650
27 | CCOc1cccc2oc(-c3cn4nc(SC)sc4n3)nc12 [Example 158] | 69.3
28 | CCOc1ccc2nc(-c3cn4nc(SC)sc4n3)oc2c1 [Example 160] | 40
29 | COCOc1ccc2nc(-c3cn4nc(SC)sc4n3)oc2c1 [Example 162] | 171
30 | COCOc1cccc2oc(-c3cn4nc(SC)sc4n3)nc12 [Example 163] | 39.5
31 | COc1nn2cc(-c3nc4ccc(OCc5ccc(C(F)(F)F)cc5)cc4o3)nc2s1 [Example 165] | 81
32 | CSc1nn2cc(-c3nc4c(OCc5ccccn5)cccc4o3)nc2s1 [Example 166] | 139
33 | CSc1nn2cc(-c3nc4c(OCc5ccncc5)cccc4o3)nc2s1 [Example 167] | 785
34 | CSc1nn2cc(-c3nc4c(OCCN5CCOCC5)cccc4o3)nc2s1 [Example 168] | 1150
35 | CSc1nn2cc(-c3nc4ccc(OCc5ccc(Cl)cc5)cc4o3)nc2s1 [Example 169] | 70.5
36 | COc1ccc(COc2ccc3nc(-c4cn5nc(SC)sc5n4)oc3c2)cc1 [Example 170] | 116

Row | Compound | IC50 [nM]
37 | CSc1nn2cc(-c3nc4c(OCc5cc(F)cc(F)c5)cccc4o3)nc2s1 [Example 171] | 48.1
38 | COc1ccc(COc2cccc3oc(-c4cn5nc(SC)sc5n4)nc23)cc1 [Example 172] | 814
39 | CSc1nn2cc(-c3nc4ccc(OCC5CC5)cc4o3)nc2s1 [Example 174] | 167
40 | CSc1nn2cc(-c3nc4c(OCC5CC5)cccc4o3)nc2s1 [Example 175] | 41.3
41 | CC(F)(F)c1nn2cc(-c3nc4ccccc4o3)nc2s1 [Example 178] | 2340
42 | CSc1nn2cc(-c3nc4ccc(OC(F)(F)F)cc4s3)nc2s1 [Example 180, 2-(2-(Methylthio)imidazo[2,1-b][1,3,4]thiadiazol-6-yl)-6-(trifluoromethoxy)benzo[d]thiazole] | 189
43 | CSc1nn2cc(-c3nc4c(OC(F)(F)F)cccc4s3)nc2s1 [Example 181, 2-(2-(Methylthio)imidazo[2,1-b][1,3,4]thiadiazol-6-yl)-4-(trifluoromethoxy)benzo[d]thiazole] | 419
44 | CSc1nn2cc(-c3nc4cc(F)ccc4s3)nc2s1 [Example 182, 5-Fluoro-2-(2-(methylthio)imidazo[2,1-b][1,3,4]thiadiazol-6-yl)benzo[d]thiazole] | 19.4
45 | CC(F)(F)c1nn2cc(-c3nc4ccccc4s3)nc2s1 [Example 185, 2-(2-(1,1-Difluoroethyl)imidazo[2,1-b][1,3,4]thiadiazol-6-yl)benzo[d]thiazole] | 626
46 | CC(F)c1nn2cc(-c3nc4ccccc4s3)nc2s1 (stereo not drawn) [Example 186, 2-(2-(1-Fluoroethyl)imidazo[2,1-b][1,3,4]thiadiazol-6-yl)benzo[d]thiazole] | 252
47 | CSc1nn2cc(-c3nc4c(Cl)cccc4s3)nc2s1 [Example 187] | 771
48 | CSc1nn2cc(-c3nc4ccc(Cl)cc4s3)nc2s1 [Example 188] | 920
49 | CSc1nn2cc(-c3nc4ccc(C)cc4s3)nc2s1 [Example 190] | 204
50 | CSc1nn2cc(-c3nc4ccc(F)cc4s3)nc2s1 [Example 191] | 30.7
51 | CSc1nn2cc(-c3nc4c(C)cc(Cl)cc4s3)nc2s1 [Example 192] | 990
52 | COc1nn2cc(-c3nc4c(OC(F)(F)F)cccc4s3)nc2s1 [Example 195] | 2420
53 | CC(F)(F)c1nn2cc(-c3nc4c(Cl)cccc4s3)nc2s1 [Example 198] | 4720
54 | Cc1ccc2nc(-c3cn4nc(C(C)(F)F)sc4n3)sc2c1 [Example 199] | 2680
